In patent US12331059B2 (priority 2019, dated 2025):

What was measured:
MV4-11 cells = assay: cells; type: cell-based; settings: Homo sapiens, MV4-11, 48 h
U937 leukemia cells = test system: U937 leukemia cells; design: species or system NSG mice; settings: mouse; for The proportion of human leukemia cells in bone marrow of mice / The proportion of human leukemia cells in peripheral blood of mice / The proportion of human leukemia cells in spleen of mice: in vivo

Structure (SMILES): Cc1ncsc1-c1ccc(CNC(=O)C2CC(O)CN2C(=O)C(NC(=O)CCCNC(=O)CC2OC3OC4(C)CCC5C(C)CCC(C2C)C35OO4)C(C)(C)C)cc1 (stereo not drawn) [CL-13]
- IC50 (MV4-11 cells): 3.1 µM

Structure (SMILES): Cc1ncsc1-c1ccc(CNC(=O)C2CC(O)CN2C(=O)C(NC(=O)Cc2ccc(CNC(=O)C34CC5CC(C3)C3(OOC6(CCCCC6)O3)C(C5)C4)cc2)C(C)(C)C)cc1 (stereo not drawn) [CL-31]
- IC50 (MV4-11 cells): 3.04 µM

Structure (SMILES): Cc1ncsc1-c1ccc(CNC(=O)C2CC(O)CN2C(=O)C(NC(=O)CCCCNC(=O)C23CC4CC(C2)C2(OOC5(CCCCC5)O2)C(C4)C3)C(C)(C)C)cc1 (stereo not drawn) [CL-30]
- IC50 (MV4-11 cells): 8.31 µM

Structure (SMILES): Cc1ncsc1-c1ccc(CNC(=O)C2CC(O)CN2C(=O)C(NC(=O)CNC(=O)CC2OC3OC4(C)CCC5C(C)CCC(C2C)C35OO4)C(C)(C)C)cc1 (stereo not drawn) [CL-12]
- IC50 (MV4-11 cells): 1.1 µM

Structure (SMILES): Cc1ncsc1-c1ccc(CNC(=O)C2CC(O)CN2C(=O)C(NC(=O)CCOCCNC(=O)CC2OC3OC4(C)CCC5C(C)CCC(C2C)C35OO4)C(C)(C)C)cc1 (stereo not drawn) [CL-9]
- IC50 (MV4-11 cells): 4.67 µM

Structure (SMILES): Cc1ncsc1-c1ccc(CNC(=O)C2CC(O)CN2C(=O)C(NC(=O)CNC(=O)C23CC4CC(C2)C2(OOC5(CCCCC5)O2)C(C4)C3)C(C)(C)C)cc1 (stereo not drawn) [CL-28]
- IC50 (MV4-11 cells): 9.72 µM

Structure (SMILES): Cc1ncsc1-c1ccc(CNC(=O)C2CC(O)CN2C(=O)C(NC(=O)CCOCCNC(=O)C23CC4CC(C2)C2(OOC5(CCCCC5)O2)C(C4)C3)C(C)(C)C)cc1 (stereo not drawn) [CL-25]
- IC50 (MV4-11 cells): 5.5 µM

Structure (SMILES): Cc1ncsc1-c1ccc(CNC(=O)C2CC(O)CN2C(=O)C(NC(=O)CCNC(=O)C23CC4CC(C2)C2(OOC5(CCCCC5)O2)C(C4)C3)C(C)(C)C)cc1 (stereo not drawn) [CL-32]
- IC50 (MV4-11 cells): 3.38 µM

Structure (SMILES): Cc1ncsc1-c1ccc(CNC(=O)C2CC(O)CN2C(=O)C(NC(=O)CCCNC(=O)C23CC4CC(C2)C2(OOC5(CCCCC5)O2)C(C4)C3)C(C)(C)C)cc1 (stereo not drawn) [CL-29]
- IC50 (MV4-11 cells): 3.5 µM

Structure (SMILES): Cc1ncsc1-c1ccc(CNC(=O)C2CC(O)CN2C(=O)C(NC(=O)CCCCNC(=O)OCCCC2OC3OC4(C)CCC5C(C)CCC(C2C)C35OO4)C(C)(C)C)cc1 (stereo not drawn) [CL-6]
- IC50 (MV4-11 cells): 5.3 µM

Structure (SMILES): Cc1ncsc1-c1ccc(CNC(=O)C2CC(O)CN2C(=O)C(NC(=O)CCNC(=O)OCCC2OC3OC4(C)CCC5C(C)CCC(C2C)C35OO4)C(C)(C)C)cc1 (stereo not drawn) [CL-24]
- IC50 (MV4-11 cells): 0.5 µM

Structure (SMILES): Cc1ncsc1-c1ccc(CNC(=O)C2CC(O)CN2C(=O)C(NC(=O)CCOCCOCCOCCNC(=O)OCCCC2OC3OC4(C)CCC5C(C)CCC(C2C)C35OO4)C(C)(C)C)cc1 (stereo not drawn) [CL-3]
- IC50 (MV4-11 cells): 0.52 µM

Structure (SMILES): Cc1ncsc1-c1ccc(CNC(=O)C2CC(O)CN2C(=O)C(NC(=O)CCOCCOCCOCCNC(=O)OCCC2OC3OC4(C)CCC5C(C)CCC(C2C)C35OO4)C(C)(C)C)cc1 (stereo not drawn) [CL-19]
- IC50 (MV4-11 cells): 0.5 µM

Structure (SMILES): Cc1ncsc1-c1ccc(CNC(=O)C2CC(O)CN2C(=O)C(NC(=O)Cc2ccc(CNC(=O)OCCC3OC4OC5(C)CCC6C(C)CCC(C3C)C46OO5)cc2)C(C)(C)C)cc1 (stereo not drawn) [CL-23]
- IC50 (MV4-11 cells): 6.2 µM

Structure (SMILES): Cc1ncsc1-c1ccc(CNC(=O)C2CC(O)CN2C(=O)C(NC(=O)CCCCNC(=O)OCCC2OC3OC4(C)CCC5C(C)CCC(C2C)C35OO4)C(C)(C)C)cc1 (stereo not drawn) [CL-22]
- IC50 (MV4-11 cells): 0.2 µM

Structure (SMILES): Cc1ncsc1-c1ccc(CNC(=O)C2CC(O)CN2C(=O)C(NC(=O)CCCNC(=O)OCCC2OC3OC4(C)CCC5C(C)CCC(C2C)C35OO4)C(C)(C)C)cc1 (stereo not drawn) [CL-21]
- IC50 (MV4-11 cells): 0.84 µM

Structure (SMILES): Cc1ncsc1-c1ccc(CNC(=O)C2CC(O)CN2C(=O)C(NC(=O)CCOCCOCCOCCNC(=O)C23CC4CC(C2)C2(OOC5(CCCCC5)O2)C(C4)C3)C(C)(C)C)cc1 (stereo not drawn) [CL-27]
- IC50 (MV4-11 cells): 12 µM

Structure (SMILES): Cc1ncsc1-c1ccc(CNC(=O)C2CC(O)CN2C(=O)C(NC(=O)CNC(=O)OCCCC2OC3OC4(C)CCC5C(C)CCC(C2C)C35OO4)C(C)(C)C)cc1 (stereo not drawn) [CL-4]
- IC50 (MV4-11 cells): 0.91 µM

Structure (SMILES): Cc1ncsc1-c1ccc(CNC(=O)C2CC(O)CN2C(=O)C(NC(=O)CCOCCOCCNC(=O)C23CC4CC(C2)C2(OOC5(CCCCC5)O2)C(C4)C3)C(C)(C)C)cc1 (stereo not drawn) [CL-26]
- IC50 (MV4-11 cells): 8.1 µM

Structure (SMILES): Cc1ncsc1-c1ccc(CNC(=O)C2CC(O)CN2C(=O)C(NC(=O)Cc2ccc(CNC(=O)OCCCC3OC4OC5(C)CCC6C(C)CCC(C3C)C46OO5)cc2)C(C)(C)C)cc1 (stereo not drawn) [CL-7]
- IC50 (MV4-11 cells): 0.46 µM

Structure (SMILES): Cc1ncsc1-c1ccc(CNC(=O)C2CC(O)CN2C(=O)C(NC(=O)CCNC(=O)OCCCC2OC3OC4(C)CCC5C(C)CCC(C2C)C35OO4)C(C)(C)C)cc1 (stereo not drawn) [CL-8]
- IC50 (MV4-11 cells): 0.24 µM
- inhibition towards the growth of U937 leukemia cells in vivo (U937 leukemia cells): strong inhibition
- The proportion of human leukemia cells in bone marrow of mice (U937 leukemia cells): 0.38 ± 0.08
- The proportion of human leukemia cells in peripheral blood of mice (U937 leukemia cells): 0.96 ± 0.16
- The proportion of human leukemia cells in spleen of mice (U937 leukemia cells): 11.39 ± 21.3

Structure (SMILES): Cc1ncsc1-c1ccc(CNC(=O)C2CC(O)CN2C(=O)C(NC(=O)CCOCCOCCNC(=O)CC2OC3OC4(C)CCC5C(C)CCC(C2C)C35OO4)C(C)(C)C)cc1 (stereo not drawn) [CL-10]
- IC50 (MV4-11 cells): 44.5 µM

Structure (SMILES): Cc1ncsc1-c1ccc(CNC(=O)C2CC(O)CN2C(=O)C(NC(=O)Cc2ccc(CNC(=O)CC3OC4OC5(C)CCC6C(C)CCC(C3C)C46OO5)cc2)C(C)(C)C)cc1 (stereo not drawn) [CL-15]
- IC50 (MV4-11 cells): 0.52 µM

Structure (SMILES): Cc1ncsc1-c1ccc(CNC(=O)C2CC(O)CN2C(=O)C(NC(=O)CCNC(=O)CCC(=O)NN2C(=O)C(C)C3CCC(C)C4CCC5(C)OOC43C2O5)C(C)(C)C)cc1 (stereo not drawn) [CL-40]
- IC50 (MV4-11 cells): 6.08 µM

Structure (SMILES): C[C@H]1[C@H](OC(=O)CCC(=O)O)O[C@@H]2O[C@@]3(C)CC[C@H]4[C@H](C)CC[C@@H]1[C@@]24OO3 [artesunate, reference compound]
- The proportion of human leukemia cells in bone marrow of mice (U937 leukemia cells): 91.28 ± 2.20
- The proportion of human leukemia cells in peripheral blood of mice (U937 leukemia cells): 21.92 ± 2.58
- The proportion of human leukemia cells in spleen of mice (U937 leukemia cells): 49.77 ± 9.28

Structure (SMILES): Cc1ncsc1-c1ccc(CNC(=O)C2CC(O)CN2C(=O)C(NC(=O)CCOCCOCCOCCNC(=O)CC2OC3OC4(C)CCC5C(C)CCC(C2C)C35OO4)C(C)(C)C)cc1 (stereo not drawn) [CL-11]
- IC50 (MV4-11 cells): 29.6 µM

Structure (SMILES): Cc1ncsc1-c1ccc(CNC(=O)C2CC(O)CN2C(=O)C(NC(=O)CCOCCOCCNC(=O)OCCCC2OC3OC4(C)CCC5C(C)CCC(C2C)C35OO4)C(C)(C)C)cc1 (stereo not drawn) [CL-2]
- IC50 (MV4-11 cells): 0.59 µM

Structure (SMILES): Cc1ncsc1-c1ccc(CNC(=O)C2CC(O)CN2C(=O)C(NC(=O)CCOCCNC(=O)OCCC2OC3OC4(C)CCC5C(C)CCC(C2C)C35OO4)C(C)(C)C)cc1 (stereo not drawn) [CL-17]
- IC50 (MV4-11 cells): 0.3 µM

Structure (SMILES): Cc1ncsc1-c1ccc(CNC(=O)C2CC(O)CN2C(=O)C(NC(=O)CCCNC(=O)OCCCC2OC3OC4(C)CCC5C(C)CCC(C2C)C35OO4)C(C)(C)C)cc1 (stereo not drawn) [CL-5]
- IC50 (MV4-11 cells): 0.55 µM

Structure (SMILES): Cc1ncsc1-c1ccc(CNC(=O)C2CC(O)CN2C(=O)C(NC(=O)CCOCCOCCNC(=O)OCCC2OC3OC4(C)CCC5C(C)CCC(C2C)C35OO4)C(C)(C)C)cc1 (stereo not drawn) [CL-18]
- IC50 (MV4-11 cells): 2.66 µM
